Test results taken from paper PMC5845537 (Frontiers in Pharmacology, 2018).

How the values were obtained:
Sprague-Dawley rats = experiment: Rat object recognition (OR) task after subchronic PCP; format: in vivo; conditions: p < 0.05
Method: Subchronic PCP treatment: The subPCP administration regimen used in rats was conducted as described in ([Goetghebeur and Dias, 2009]), which is a reliable method for inducing deficits in our hands. Rats in the subPCP experiments received injections of 5 mg/mL PCP or vehicle (saline) s.c. at a 1 mL/kg injection volume twice per day for 7 days. […] The mouse subPCP regimen was conducted as described in [Pedersen et al. (2014)]. Briefly, mice received vehicle or PCP (1.3 mg/mL concentration, 10 mL/kg injection volume) s.c once per day for 14 days followed by a 7-day washout prior to experimentation.
The behavioral procedures for the rat OR task were conducted as described in [du Jardin et al. (2014)]. […] OR task sessions were recorded by a digital camera situated above the open field. Exploration time for each object was recorded with a stopwatch from the videos. […]
The primary dependent measure for the OR and object placement tasks was a novel object or novel placement preference score, which were calculated from raw object investigation times using the following equation: Preference Score = ITN/(ITN + ITF)^∗100, where ITN represents the investigation time for the novel object or placement, and ITF represents the investigation for the familiar object or placement. Total exploration times from the information and test trials were analyzed for OP and OR experiments. […]

GABAB receptor = target: T1, GABAB receptor (Rattus norvegicus, UniProt Q9Z0U4); experiment: Ex vivo autoradiography, GABAB receptor saturation binding ([3H]CGP54626), medial prefrontal cortex
T1 construct: 12 μm coronal sections were collected from an area ranging from approximately +4.2 mm to +2.3 mm anterior to Bregma; from tissue; host or cells: rat brain cryosections, medial prefrontal cortex (prelimbic and infralimbic)
Excerpt: Rats used in ex vivo autoradiography (EVA) experiments were randomly assigned to one of four experimental groups characterized by either subchronic saline or PCP (as described above) along with either vehicle or vortioxetine-infused food (1.8 g vortioxetine/kg food weight, as described in the attentional set shifting task). On day 8 of PCP withdrawal, rats were anesthetized using CO2 and killed by decapitation. Brains were quickly and gently removed from the skull, flash frozen on powdered dry ice, and stored at -20°C until sectioning. Later, 12 μm coronal sections were collected from an area ranging from approximately +4.2 mm to +2.3 mm anterior to Bregma ([Paxinos and Watson, 1998]) using a cryostat (MicroM, Germany) and were thaw-mounted on glass microscope slides. This range of coronal slices was chosen in order to study the prelimbic and infralimbic subregions of the medial prefrontal cortex, given the importance of these regions in tests of executive function such as the attentional set shifting task ([Ng et al., 2007]). After the tissue mounted on the microscope slides had dried thoroughly (in order to reduce damage from freezing), slides were packed into slide boxes with desiccator pellets, and stored at -20°C for use in EVA saturation binding and competition experiments.
Each of the EVA procedures used in this study are variations on a similar theme. On the day of an experiment, slide-boxes were defrosted under a constant stream of air at room temperature until the boxes were dry and equilibrated with the environment in terms of temperature. This step was undertaken in order to ensure brain tissue was not damaged by frosting due to a sudden change in humidity. Prior to any binding experiments, slides were preincubated in the appropriate preincubation buffer and dried at room temperature. Subsequently, tissue was incubated in an assay buffer containing a radioligand appropriate for the receptor of interest, then rinsed in assay buffer, and dried overnight in a vacuum desiccator. Specific information on the contents of the preincubation buffers, assay buffers and other assay conditions are listed in Table 2. Finally, slides were opposed to a tritium-sensitive phosphor screen (Fuji imaging plate, GE Healthcare, Pittsburgh, PA, United States) for 5 days before being read in a phosphorimager (Typhoon FLA7000, GE Healthcare). Analysis methods are listed below under statistical analyses.
In saturation binding experiments, the concentration of the relevant radioligand in the assay buffer was systematically varied in order to determine the KD and Bmax of the receptor in question. At each radioligand concentration, the non-specific binding was determined on a separate slide by including a high concentration of a non-radioactive competitor ligand in the assay buffer along with the radioligand. For GABAA receptor saturation binding experiments, [^3H]muscimol was examined in quarter log steps ranging from 0.56 to 300 nM. For GABAB receptor saturation binding experiments, [^3H]CGP54626 was examined in quarter log steps ranging from 0.17 to 100 nM.
For saturation binding studies, the primary dependent measures were pKD and Bmax. First, a standard curve was generated by measuring optical intensity from a slide of tritium standards (American Radiolabeled Chemicals, St. Louis, MO, United States) included in the slide cassette during exposure. A linear regression was performed to determine the relationship between intensity and bound radioactivity (measured on the standards in units of μCi/g). Next, average intensity values from the non-specific bound condition for each concentration of radioligand was subtracted from intensity values from the total bound condition to produce a measure of specific binding for each radioligand concentration. These optical intensity values were transformed into bound radioactivity (expressed as nCi/mg) measurements by interpolation from the standard curve noted above. […]

T1 sequence (Q9Z0U4 17-960 limits assumed): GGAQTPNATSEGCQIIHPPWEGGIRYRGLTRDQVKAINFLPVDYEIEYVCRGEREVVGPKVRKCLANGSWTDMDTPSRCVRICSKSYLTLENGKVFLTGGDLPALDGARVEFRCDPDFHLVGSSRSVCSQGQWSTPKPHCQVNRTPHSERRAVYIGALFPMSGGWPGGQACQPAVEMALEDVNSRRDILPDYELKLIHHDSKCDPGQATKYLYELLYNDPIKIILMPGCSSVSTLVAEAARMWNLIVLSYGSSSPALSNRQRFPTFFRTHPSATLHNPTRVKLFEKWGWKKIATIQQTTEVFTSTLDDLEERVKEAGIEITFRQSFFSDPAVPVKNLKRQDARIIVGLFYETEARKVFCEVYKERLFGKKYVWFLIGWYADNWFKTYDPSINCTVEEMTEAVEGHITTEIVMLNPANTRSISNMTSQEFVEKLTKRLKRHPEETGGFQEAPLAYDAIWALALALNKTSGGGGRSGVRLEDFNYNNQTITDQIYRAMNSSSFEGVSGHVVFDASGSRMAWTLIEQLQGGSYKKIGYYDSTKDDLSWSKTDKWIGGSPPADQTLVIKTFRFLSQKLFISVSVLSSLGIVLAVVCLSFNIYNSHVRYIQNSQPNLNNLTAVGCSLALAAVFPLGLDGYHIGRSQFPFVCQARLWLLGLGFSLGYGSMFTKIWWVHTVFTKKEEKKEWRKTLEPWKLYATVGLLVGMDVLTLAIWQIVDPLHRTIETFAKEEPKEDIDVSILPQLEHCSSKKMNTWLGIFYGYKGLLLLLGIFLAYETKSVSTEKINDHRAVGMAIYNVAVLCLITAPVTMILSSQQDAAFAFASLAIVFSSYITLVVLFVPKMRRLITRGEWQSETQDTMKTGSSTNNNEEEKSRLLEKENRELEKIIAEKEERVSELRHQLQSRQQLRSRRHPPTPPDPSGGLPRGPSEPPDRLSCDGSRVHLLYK
T1 sequence (O88871 41-940 partner): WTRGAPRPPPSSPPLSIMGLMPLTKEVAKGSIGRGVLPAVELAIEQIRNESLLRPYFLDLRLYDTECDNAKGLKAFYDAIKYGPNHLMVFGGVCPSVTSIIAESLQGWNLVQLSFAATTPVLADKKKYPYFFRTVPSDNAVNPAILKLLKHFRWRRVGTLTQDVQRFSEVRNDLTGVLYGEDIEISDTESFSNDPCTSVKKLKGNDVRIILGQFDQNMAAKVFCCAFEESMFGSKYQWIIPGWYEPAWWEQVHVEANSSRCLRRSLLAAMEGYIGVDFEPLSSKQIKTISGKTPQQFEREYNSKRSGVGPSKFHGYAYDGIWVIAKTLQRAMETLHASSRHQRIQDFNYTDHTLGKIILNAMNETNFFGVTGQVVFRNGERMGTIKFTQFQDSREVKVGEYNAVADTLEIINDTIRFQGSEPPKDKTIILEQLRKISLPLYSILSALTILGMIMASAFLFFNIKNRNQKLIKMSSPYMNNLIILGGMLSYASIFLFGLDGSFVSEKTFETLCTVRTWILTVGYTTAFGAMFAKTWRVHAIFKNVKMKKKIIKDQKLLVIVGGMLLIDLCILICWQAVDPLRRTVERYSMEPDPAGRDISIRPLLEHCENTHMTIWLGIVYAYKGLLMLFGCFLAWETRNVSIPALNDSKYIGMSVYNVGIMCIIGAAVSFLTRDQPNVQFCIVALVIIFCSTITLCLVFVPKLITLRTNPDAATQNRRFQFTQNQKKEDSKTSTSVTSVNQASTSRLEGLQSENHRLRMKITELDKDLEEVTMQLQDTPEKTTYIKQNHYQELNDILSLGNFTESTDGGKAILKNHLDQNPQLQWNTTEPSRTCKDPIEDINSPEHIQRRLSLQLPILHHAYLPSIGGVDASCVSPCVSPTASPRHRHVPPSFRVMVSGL

Row | SMILES | OR performance (novel object preference score) (Sprague-Dawley rats; subPCP alone vs vehicle-treated controls) | effect of treatment on [3H]CGP54626 Bmax (GABAB receptor) (GABAB receptor; subPCP vs saline/vehicle group, p < 0.05) | attenuation of subPCP-induced OR impairment (preference score) (Sprague-Dawley rats; subPCP-treated rats, acute 10 mg/kg 1 h s.c.) | [3H]CGP54626 Bmax (GABAB receptor), PCP/vortioxetine vs PCP/vehicle (GABAB receptor; subchronic vortioxetine combined with subPCP)
1 | Cl.c1ccc(C2(N3CCCCC3)CCCCC2)cc1 [PCP, 1-(1-phenylcyclohexyl)-piperidine hydrochloride] | significant impairments | significant reductions |  | 
2 | Cc1ccc(Sc2ccccc2N2CCNCC2)c(C)c1 [vortioxetine] |  |  | significantly attenuated | no significant differences
